Source: US11891401B2, “Solid forms of N-(4-fluoro-3-(6-(3-methylpyridin-2-yl)-[1,2,4]triazolo[1,5-a]pyrimidin-2-yl)phenyl)-2,4-dimethyloxazole-5-carboxamide” (NOVARTIS AG, priority 2018, dated 2024)
≈ marks a conversion by molar mass, not a printed value.

Legend:
Assay type in all cases: physicochemical
[1] = Solid-state chemical stability: degradation products by UPLC/HPLC after stress storage; conditions: for DP % (Degradation Product), Bulk (UPLC): Solid state; for DP % (Degradation Product), Amber vial (HPLC) / DP % (Degradation Product), Clear vial (HPLC): Xenon light (approx. 1200 kLuxh)
Experimental: (§1) Compound I, Compound I fumaric acid co-crystals and amorphous Compound I fumaric acid samples (10 mg) were placed in an open vial at 50° C./75% RH and 80° C./75% RH chamber for one week. A same amount of sample was placed in a closed vial at 50° C. and 80° C. chamber for 1 week. The samples were exposed to 100 k Lux light for 12 h at 25° C. Solids were examined by XRPD for physical stability determination and by UPLC for chemical stability determination. The color of the samples was evaluated by visual observation. Table 5 compares the stability of Compound I and its various solid forms.

[2] = Solid-state physical stability: form change by XRPD after stress storage; conditions: Solid state
Experimental: as §1

[3] = Solubility in various media at 25° C. after 24 hours equilibration (UPLC); conditions: for final pH of the sample (in parentheses): after 24 hours equilibration
[4] = Dynamic Vapor Sorption (DVS) moisture absorption / hygroscopicity; conditions: for solid form after DVS: after DVS testing; for moisture absorption by DVS: at 90% RH, 25° C.; for hygroscopicity: by DVS
[5] = Crystal form after grinding, compression and wet granulation; conditions: compression and wet granulation (water and ethanol)
[6] = 1 week 80° C., closed container
[7] = 0.01N HCl pH 2.0, 25° C., 24 hours equilibration
[8] = 0.1N HCl pH 1.0, 25° C., 24 hours equilibration
[9] = FaSSIF pH 6.5, 25° C., 24 hours equilibration
[10] = FeSSIF pH 5.8, 25° C., 24 hours equilibration
[11] = SGF pH 2.0, 25° C., 24 hours equilibration
[12] = acetate buffer pH 4.7, 25° C., 24 hours equilibration
[13] = borate buffer pH 10.0, 25° C., 24 hours equilibration
[14] = phosphate buffer pH 6.8, 25° C., 24 hours equilibration
[15] = water, 25° C., 24 hours equilibration
[16] = 1 week 50° C., closed container
[17] = listed as Compound I fumaric acid co-crystals (2:1)

DP % (Degradation Product), Bulk (UPLC) [1, 6] [%]	DP % (Degradation Product), Bulk (UPLC) ([1]; 1 week 80° C./75% r.h.) [%]	DP % (Degradation Product), Amber vial (HPLC) [1] [%]	DP % (Degradation Product), Clear vial (HPLC) [1] [%]	Bulk (XRPD) [2, 6]	solubility [3, 7] [µg/mL]	final pH of the sample (in parentheses) ([3]; 0.01N HCl pH 2.0)	solubility [3, 8] [µg/mL]	final pH of the sample (in parentheses) ([3]; 0.1N HCl pH 1.0)	solubility [3, 9] [µg/mL]	final pH of the sample (in parentheses) ([3]; FaSSIF pH 6.5)	solubility [3, 10] [µg/mL]	final pH of the sample (in parentheses) ([3]; FeSSIF pH 5.8)	solubility [3, 11] [µg/mL]	final pH of the sample (in parentheses) ([3]; SGF pH 2.0)	solubility [3, 12] [µg/mL]	final pH of the sample (in parentheses) ([3]; acetate buffer pH 4.7)	final pH of the sample (in parentheses) ([3]; borate buffer pH 10.0)	final pH of the sample (in parentheses) ([3]; phosphate buffer pH 6.8)	final pH of the sample (in parentheses) ([3]; water)	Structure (SMILES)	further results
2.6	2.7	2.8	4.5	no change	36 (≈ 81.2 µM)	(2.1)	350 (≈ 789 µM)	(1.1)	7 (≈ 15.8 µM)	(5.8)	18 (≈ 40.6 µM)	(5.6)	55 (≈ 124 µM)	(2.2)	<0.1	(4.6)	(9.6)	(6.6)	(3.0)	Cc1nc(C)c(C(=O)Nc2ccc(F)c(-c3nc4ncc(-c5ncccc5C)cn4n3)c2)o1 [Amorphous Compound I Fumaric Acid (1:1), N-(4-fluoro-3-(6-(3-methylpyridin-2-yl)-[1,2,4]triazolo[1,5-a]pyrimidin-2-yl)phenyl)-2,4-dimethyloxazole-5-carboxamide]	solubility [3, 13]: <0.1 µg/mL; solubility [3, 14]: <0.1 µg/mL; solubility [3, 15]: 0.2 µg/mL (≈ 0.451 µM)
1.7	1.6	1.5	10.6	no change	9 (≈ 20.3 µM)	(2.0)	180 (≈ 406 µM)	(1.1)	3 (≈ 6.77 µM)	(6.1)	13 (≈ 29.3 µM)	(5.7)	25 (≈ 56.4 µM)	(2.2)	<0.1	(4.7)	(9,7)	(6.7)	(3.2)	Cc1nc(C)c(C(=O)Nc2ccc(F)c(-c3nc4ncc(-c5ncccc5C)cn4n3)c2)o1 [Amorphous Compound I Fumaric Acid (2:1), N-(4-fluoro-3-(6-(3-methylpyridin-2-yl)-[1,2,4]triazolo[1,5-a]pyrimidin-2-yl)phenyl)-2,4-dimethyloxazole-5-carboxamide]	solubility [3, 13]: <0.1 µg/mL; solubility [3, 14]: <0.1 µg/mL; solubility [3, 15]: <0.1 µg/mL
1.2	1.2	1.2	1.2	no change	5	(1.9)	160	(0.8)		(5.9)		(5.5)	30	(1.9)		(4.5)	(9.6)	(6.6)	(3.1)	Cc1nc(C)c(C(=O)Nc2ccc(F)c(-c3nc4ncc(-c5ncccc5C)cn4n3)c2)o1 [Compound I Fumaric Acid Co-crystal (2:1), N-(4-fluoro-3-(6-(3-methylpyridin-2-yl)-[1,2,4]triazolo[1,5-a]pyrimidin-2-yl)phenyl)-2,4-dimethyloxazole-5-carboxamide]	DP % (Degradation Product), Bulk (UPLC) [1, 16]: 1.2%; DP % (Degradation Product), Bulk (UPLC) ([1]; 1 week 50° C./75% r.h.): 1.2%; Bulk (XRPD) [2, 16]: no change; Bulk (XRPD) ([2]; 1 week 50° C./75% r.h.): no change; solubility compared to the solubility of the free form ([3]; FeSSIF): significantly better; solubility at 24 h ([3]; thermodynamic from solid, FeSSIF pH 5.8, 25° C., 24 hours equilibration): 17 µg/mL; solid form after DVS [4, 17]: remains the same form; moisture absorption by DVS [4]: 0.12%; moisture absorption by DVS [4, 17]: 0.12%; hygroscopicity [4]: non-hygroscopic; hygroscopicity [4, 17]: non-hygroscopic
1.7	1.7	1.7	1.6	no change	21 (≈ 47.4 µM)	(2.1)	170 (≈ 383 µM)	(1.0)	7 (≈ 15.8 µM)	(5.7)	16 (≈ 36.1 µM)	(5.6)	63 (≈ 142 µM)	(1.9)	2 (≈ 4.51 µM)	(4.6)	(8.1)	(6.5)	(2.9)	Cc1nc(C)c(C(=O)Nc2ccc(F)c(-c3nc4ncc(-c5ncccc5C)cn4n3)c2)o1 [Form B, N-(4-fluoro-3-(6-(3-methylpyridin-2-yl)-[1,2,4]triazolo[1,5-a]pyrimidin-2-yl)phenyl)-2,4-dimethyloxazole-5-carboxamide]	DP % (Degradation Product), Bulk (UPLC) [1, 16]: 1.8%; DP % (Degradation Product), Bulk (UPLC) ([1]; 1 week 50° C./75% r.h.): 1.7%; Bulk (XRPD) [2, 16]: no change; Bulk (XRPD) ([2]; 1 week 50° C./75% r.h.): no change; stability and solubility (24 h) in aqueous media ([3]; aqueous media, 24 h, versus free form hydrate): comparable to the free form hydrate; solubility compared to the solubility of the free form ([3]; biological fluids SGF, FaSSIF and FeSSIF): significantly better; solubility [3, 13]: 2 µg/mL (≈ 4.51 µM); solubility [3, 14]: 2 µg/mL (≈ 4.51 µM); solubility [3, 15]: 4 µg/mL (≈ 9.02 µM); solid form after DVS [4]: remains the same form; moisture absorption by DVS [4]: 0.3%; hygroscopicity [4]: non-hygroscopic; crystal form after grinding, compression and wet granulation [5]: did not alter the crystal form
1.8	1.8	1.8	1.8	no change			240 (≈ 541 µM)	(1.1)		(5.5)		(5.5)	46 (≈ 104 µM)	(2.0)		(4.4)		(6.4)	(2.9)	Cc1nc(C)c(C(=O)Nc2ccc(F)c(-c3nc4ncc(-c5ncccc5C)cn4n3)c2)o1 [Form C, N-(4-fluoro-3-(6-(3-methylpyridin-2-yl)-[1,2,4]triazolo[1,5-a]pyrimidin-2-yl)phenyl)-2,4-dimethyloxazole-5-carboxamide]	DP % (Degradation Product), Bulk (UPLC) [1, 16]: 1.8%; DP % (Degradation Product), Bulk (UPLC) ([1]; 1 week 50° C./75% r.h.): 1.7%; Bulk (XRPD) [2, 16]: no change; Bulk (XRPD) ([2]; 1 week 50° C./75% r.h.): no change; moisture absorption by DVS [4]: approximately 0.6%; hygroscopicity [4]: slightly hygroscopic
